Converted amounts (≈) assume the structure as drawn.
Test system: Staphylococcus aureus ATCC 25923
Assay: ≥ marks a high value that may be exact or a test limit, other limits are often not marked, values filed in µg/mL are converted to µM

SMILES | MIC [µM]
CC[C@H](C)[C@H](NC(=O)[C@H](C)NC(=O)[C@H](CC(N)=O)NC(=O)[C@@H](N)CCSC)C(=O)N[C@@H](CC(N)=O)C(=O)N[C@@H](Cc1ccccc1)C(=O)N[C@H](C(=O)N[C@@H](CS)C(=O)N[C@H](C(=O)N[C@H](C(=O)N[C@@H](Cc1cnc[nH]1)C(=O)N[C@@H](CCCCN)C(=O)N[C@@H](CCCCN)C(=O)N[C@H](C(=O)N[C@@H](C)C(=O)N[C@H](C(=O)N[C@@H](CO)C(=O)N[C@H](C(=O)O)C(C)C)[C@@H](C)CC)C(C)C)C(C)C)[C@@H](C)O)[C@@H](C)O [MNAINFTCTVHKKVAISV] | > 130

Test system: Escherichia coli JW0013
Assay: as above

SMILES | MIC [µM]
CC[C@H](C)[C@H](NC(=O)[C@H](CCCN=C(N)N)NC(=O)[C@H](CCCN=C(N)N)NC(=O)[C@@H]1CCCN1C(=O)[C@@H]1CCCN1C(=O)[C@H](CCCN=C(N)N)NC(=O)[C@@H]1CCCN1C(=O)[C@H](CCCN=C(N)N)NC(=O)[C@@H]1CCCN1C(=O)[C@H](CC(C)C)NC(=O)[C@H](Cc1ccc(O)cc1)NC(=O)[C@@H]1CCCN1C(=O)[C@@H]1CCCN1C(=O)[C@H](CCCCN)NC(=O)[C@H](CC(=O)O)NC(=O)[C@@H](N)CCCN=C(N)N)C(=O)N[C@@H](Cc1ccc(O)cc1)C(=O)N[C@@H](CC(N)=O)C(=O)N[C@@H](CCCN=C(N)N)C(N)=O [RDKPPYLPRPRPPRRIYNR] | 1.96 (≈ 4.8 µg/mL)
CC[C@H](C)[C@H](NC(=O)[C@H](CCCCN)NC(=O)[C@@H](N)CCCN=C(N)N)C(=O)N[C@@H](CCCN=C(N)N)C(=O)N1CCC[C@H]1C(=O)N[C@@H](CCCN=C(N)N)C(=O)N1CCC[C@H]1C(=O)N1CCC[C@H]1C(=O)N[C@@H](CCCN=C(N)N)C(=O)N[C@@H](CC(C)C)C(=O)N1CCC[C@H]1C(=O)N[C@@H](CCCN=C(N)N)C(=O)N1CCC[C@H]1C(=O)N[C@@H](CCCN=C(N)N)C(=O)N1CCC[C@H]1C(=O)N[C@@H](CCCN=C(N)N)C(=O)O [RKIRPRPPRLPRPRPR] | 0.3 (≈ 0.615 µg/mL)
CC[C@H](C)[C@H](NC(=O)[C@H](CCCN=C(N)N)NC(=O)[C@H](CCCN=C(N)N)NC(=O)[C@@H]1CCCN1C(=O)[C@@H]1CCCN1C(=O)[C@H](CCCN=C(N)N)NC(=O)[C@H](CCCCN)NC(=O)[C@H](CCCN=C(N)N)NC(=O)[C@@H]1CCCN1C(=O)[C@H](CC(C)C)NC(=O)[C@H](Cc1ccc(O)cc1)NC(=O)[C@H](Cc1cnc[nH]1)NC(=O)[C@H](CCCCN)NC(=O)[C@H](CCCCN)NC(=O)[C@H](CC(=O)O)NC(=O)[C@@H](N)C(C)C)C(=O)N[C@@H](Cc1ccc(O)cc1)C(=O)N[C@@H](CC(N)=O)C(=O)N[C@@H](CCCN=C(N)N)C(N)=O [VDKKHYLPRKRPPRRIYNR] | 0.682 (≈ 1.7 µg/mL)
CC[C@H](C)[C@H](NC(=O)[C@H](CCCN=C(N)N)NC(=O)[C@H](CCCN=C(N)N)NC(=O)[C@@H]1CCCN1C(=O)[C@@H]1CCCN1C(=O)[C@H](CCCN=C(N)N)NC(=O)[C@H](CCCN=C(N)N)NC(=O)[C@H](CCCN=C(N)N)NC(=O)[C@@H]1CCCN1C(=O)[C@H](CC(C)C)NC(=O)[C@H](Cc1ccc(O)cc1)NC(=O)[C@H](Cc1cnc[nH]1)NC(=O)[C@H](CCCCN)NC(=O)[C@H](CCCCN)NC(=O)[C@H](CC(=O)O)NC(=O)[C@@H](N)C(C)C)C(=O)N[C@@H](Cc1ccc(O)cc1)C(=O)N[C@@H](CC(N)=O)C(=O)N[C@@H](CCCN=C(N)N)C(N)=O [VDKKHYLPRRRPPRRIYNR] | 0.952 (≈ 2.4 µg/mL)
CC[C@H](C)[C@H](NC(=O)[C@H](CCCN=C(N)N)NC(=O)[C@H](CCCN=C(N)N)NC(=O)[C@@H]1CCCN1C(=O)[C@@H]1CCCN1C(=O)[C@H](CCCN=C(N)N)NC(=O)[C@@H]1CCCN1C(=O)[C@H](CCCN=C(N)N)NC(=O)[C@@H]1CCCN1C(=O)[C@H](CCCN=C(N)N)NC(=O)[C@H](Cc1ccc(O)cc1)NC(=O)[C@H](Cc1cnc[nH]1)NC(=O)[C@H](CCCCN)NC(=O)[C@H](CCCCN)NC(=O)[C@H](CC(=O)O)NC(=O)[C@@H](N)C(C)C)C(=O)N[C@@H](Cc1ccc(O)cc1)C(=O)N[C@@H](CC(N)=O)C(=O)N[C@@H](CCCN=C(N)N)C(N)=O [VDKKHYRPRPRPPRRIYNR] | 0.639 (≈ 1.6 µg/mL)
CC[C@H](C)[C@H](NC(=O)[C@H](CCCN=C(N)N)NC(=O)[C@H](CCCN=C(N)N)NC(=O)[C@@H]1CCCN1C(=O)[C@@H]1CCCN1C(=O)[C@H](CCCN=C(N)N)NC(=O)[C@H](CCCCN)NC(=O)[C@H](CCCN=C(N)N)NC(=O)[C@@H]1CCCN1C(=O)[C@H](CC(C)C)NC(=O)[C@H](Cc1ccc(O)cc1)NC(=O)[C@@H]1CCCN1C(=O)[C@H](CCCCN)NC(=O)[C@H](CCCCN)NC(=O)[C@H](CC(=O)O)NC(=O)[C@@H](N)C(C)C)C(=O)N[C@@H](Cc1ccc(O)cc1)C(=O)N[C@@H](CC(N)=O)C(=O)N[C@@H](CCCN=C(N)N)C(N)=O [VDKKPYLPRKRPPRRIYNR] | 0.489 (≈ 1.2 µg/mL)
CC[C@H](C)[C@H](NC(=O)[C@H](CCCN=C(N)N)NC(=O)[C@H](CCCN=C(N)N)NC(=O)[C@@H]1CCCN1C(=O)[C@@H]1CCCN1C(=O)[C@H](CCCN=C(N)N)NC(=O)[C@@H]1CCCN1C(=O)[C@H](CCCN=C(N)N)NC(=O)[C@@H]1CCCN1C(=O)[C@H](CC(C)C)NC(=O)[C@H](Cc1ccc(O)cc1)NC(=O)[C@H](CCCN=C(N)N)NC(=O)[C@@H]1CCCN1C(=O)[C@H](CCCCN)NC(=O)[C@H](CC(=O)O)NC(=O)[C@@H](N)C(C)C)C(=O)N[C@@H](Cc1ccc(O)cc1)C(=O)N[C@@H](CC(N)=O)C(=O)N[C@@H](CCCN=C(N)N)C(N)=O [VDKPRYLPRPRPPRRIYNR] | 1.35 (≈ 3.3 µg/mL)
CC[C@H](C)[C@H](NC(=O)[C@H](CCCN=C(N)N)NC(=O)[C@H](CCCN=C(N)N)NC(=O)[C@@H]1CCCN1C(=O)[C@@H]1CCCN1C(=O)[C@H](CCCN=C(N)N)NC(=O)[C@H](CCCCN)NC(=O)[C@H](CCCN=C(N)N)NC(=O)[C@@H]1CCCN1C(=O)[C@H](CC(C)C)NC(=O)[C@H](Cc1ccc(O)cc1)NC(=O)[C@H](Cc1cnc[nH]1)NC(=O)[C@H](CCCN=C(N)N)NC(=O)[C@H](CCCCN)NC(=O)[C@H](CC(=O)O)NC(=O)[C@@H](N)C(C)C)C(=O)N[C@@H](Cc1ccc(O)cc1)C(=O)N[C@@H](CC(N)=O)C(=O)N[C@@H](CCCN=C(N)N)C(N)=O [VDKRHYLPRKRPPRRIYNR] | 0.635 (≈ 1.6 µg/mL)
CC[C@H](C)[C@H](NC(=O)[C@H](CCCN=C(N)N)NC(=O)[C@H](CCCN=C(N)N)NC(=O)[C@@H]1CCCN1C(=O)[C@@H]1CCCN1C(=O)[C@H](CCCN=C(N)N)NC(=O)[C@H](CCCCN)NC(=O)[C@H](CCCN=C(N)N)NC(=O)[C@@H]1CCCN1C(=O)[C@H](CC(C)C)NC(=O)[C@H](Cc1ccc(O)cc1)NC(=O)[C@@H]1CCCN1C(=O)[C@H](CCCN=C(N)N)NC(=O)[C@H](CCCCN)NC(=O)[C@H](CC(=O)O)NC(=O)[C@@H](N)C(C)C)C(=O)N[C@@H](Cc1ccc(O)cc1)C(=O)N[C@@H](CC(N)=O)C(=O)N[C@@H](CCCN=C(N)N)C(N)=O [VDKRPYLPRKRPPRRIYNR] | 0.685 (≈ 1.7 µg/mL)
CC[C@H](C)[C@H](NC(=O)[C@H](CCCN=C(N)N)NC(=O)[C@H](CCCN=C(N)N)NC(=O)[C@@H]1CCCN1C(=O)[C@@H]1CCCN1C(=O)[C@H](CCCN=C(N)N)NC(=O)[C@@H]1CCCN1C(=O)[C@H](CCCN=C(N)N)NC(=O)[C@@H]1CCCN1C(=O)[C@H](CC(C)C)NC(=O)[C@H](Cc1ccc(O)cc1)NC(=O)[C@@H]1CCCN1C(=O)[C@@H]1CCCN1C(=O)[C@H](CCCCN)NC(=O)[C@H](CCCCN)NC(=O)[C@@H](N)C(C)C)C(=O)N[C@@H](Cc1ccc(O)cc1)C(=O)N[C@@H](CC(N)=O)C(=O)N[C@@H](CCCN=C(N)N)C(N)=O [VKKPPYLPRPRPPRRIYNR] | 1.37 (≈ 3.3 µg/mL)

Test system: Escherichia coli ATCC 8739
Assay: as above

SMILES | MIC [µM]
CC[C@H](C)[C@H](NC(=O)[C@H](C)NC(=O)[C@H](CC(N)=O)NC(=O)[C@@H](N)CCSC)C(=O)N[C@@H](CC(N)=O)C(=O)N[C@@H](Cc1ccccc1)C(=O)N[C@H](C(=O)N[C@@H](CS)C(=O)N[C@H](C(=O)N[C@H](C(=O)N[C@@H](Cc1cnc[nH]1)C(=O)N[C@@H](CCCCN)C(=O)N[C@@H](CCCCN)C(=O)N[C@H](C(=O)N[C@@H](C)C(=O)N[C@H](C(=O)N[C@@H](CO)C(=O)N[C@H](C(=O)O)C(C)C)[C@@H](C)CC)C(C)C)C(C)C)[C@@H](C)O)[C@@H](C)O [MNAINFTCTVHKKVAISV] | ≥ 130
